Data as given in ChEMBL document CHEMBL5728026, “Indole derivative used as CRTH2 inhibitor” (2020).

The compounds below were run against T1, Prostaglandin D2 receptor 2 (Homo sapiens, UniProt Q9Y5Y4) (assay: Biological Activity Assay: Experimental Method:PathHunter CHO-K1 CRTH2 β-arrestin cells (DiscoverX, catalogue number 93-0291C2) grew under standard conditions, and were inoculated into a white-wall 384-well microplate at a density of 5,000 cells/well. 20 μL of Cell Plating Reagent 1 was used in each well. Before the test, the cells were incubated overnight at 37° C./5% CO2. A test compound was serially diluted in DMSO with a dilution factor of 3-fold to give 8 concentrations of the test compound. Shortly before the test, the serially diluted test compound was further diluted with the test buffer to 5 times of the test concentration. 5 μL of the further diluted test compound was added to the cells, and the cells were incubated for 30 min at 37° C. The concentration of the solvent was 1%. 5 μL of 6×EC80 agonist (PGD2) buffer was added to the cells, and the cells were incubated for 90 min at 37° C. Measured signals were generated by one-time addition of 15 μL (50% v/v) of PathHunter detection mixture reagent and subsequent one-hour incubation. The microplate was read through the chemiluminescent signals of PerkinElmer Envision™ reader. Biological activity of the test compound was analyzed by CBIS data analysis suite (ChemInnovation, CA), and was denoted as IC50 value.).
T1 sequence (Q9Y5Y4 whole entry): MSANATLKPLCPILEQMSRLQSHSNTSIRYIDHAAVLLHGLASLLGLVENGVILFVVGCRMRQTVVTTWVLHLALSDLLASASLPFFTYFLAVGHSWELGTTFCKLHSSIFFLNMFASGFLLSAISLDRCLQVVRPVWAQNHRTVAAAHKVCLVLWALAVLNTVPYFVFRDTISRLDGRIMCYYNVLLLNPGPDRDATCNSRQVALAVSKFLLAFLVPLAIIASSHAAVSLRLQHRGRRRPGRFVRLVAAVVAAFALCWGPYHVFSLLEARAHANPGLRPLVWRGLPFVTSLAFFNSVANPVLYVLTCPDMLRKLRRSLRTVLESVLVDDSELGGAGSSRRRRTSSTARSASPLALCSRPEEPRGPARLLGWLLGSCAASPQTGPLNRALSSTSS

IC50	SMILES
< 100 nM	Cc1c(C2=CS(=O)(=O)c3cc(Cl)ccc32)c2cc(F)ccc2n1CC(=O)O
< 100 nM	CC1=Nc2cc(Cc3c(C)n(CC(=O)O)c4ccc(F)cc34)ccc2S(=O)(=O)N1
> 1000 nM	Cc1c(Cc2ccc3c(c2)C(F)(F)CCS3(=O)=O)c2cnccc2n1CC(=O)O
< 100 nM	Cc1c(Cc2cc3c(cc2C(F)(F)F)S(=O)(=O)N(C)CN3C)c2cc(F)ccc2n1CC(=O)O
< 100 nM	Cc1c(C2=CCS(=O)(=O)c3ccccc32)c2cc(F)ccc2n1CC(=O)O
> 1000 nM	Cc1c(C2=CS(=O)(=O)c3ccc(F)cc32)c2cc(F)ccc2n1CC(=O)O
< 100 nM	Cc1c(Cc2ccc3c(c2)C(F)(F)CCS3(=O)=O)c2cc(F)ccc2n1CC(=O)O
< 100 nM	Cc1c(C2=CS(=O)(=O)c3cc(C(F)(F)F)ccc32)c2cc(F)ccc2n1CC(=O)O
< 100 nM	Cc1c(C2=CS(=O)(=O)c3ccccc32)c2ccc(Cl)cc2n1CC(=O)O

Further lines, the compound ahead of its results:

SMILES	IC50
Cc1c(Cc2ccc3c(c2)C(F)(F)CCS3(=O)=O)c2cc(F)ccc2n1Cc1nn[nH]n1	> 1000 nM
Cc1c(Cc2ccc3c(c2)C(F)(F)CN(C)S3(=O)=O)c2cc(F)ccc2n1CC(=O)O	< 100 nM
Cc1c(Cc2ccc3c(c2)CCS3(=O)=O)c2cc(NC(=O)C3CC3)ccc2n1CC(=O)O	> 1000 nM
Cc1c(Cc2ccc3c(c2)C(C)(C)CS3(=O)=O)c2cc(F)ccc2n1CC(=O)O	< 100 nM
Cc1c(C2=CS(=O)(=O)c3ccccc32)c2cc(F)ccc2n1CC(=O)O	< 100 nM
O=C(O)Cn1c(-c2ccccc2)c(Cc2ccc3c(c2)CCS3(=O)=O)c2ccccc21	> 1000 nM
Cc1c(C2=CS(=O)(=O)c3cc(-c4cc(F)cc(Cl)c4)ccc32)c2cc(F)ccc2n1CC(=O)O	< 100 nM
Cc1c(Cc2ccc3c(c2)N(C)CN(C)S3(=O)=O)c2cc(F)ccc2n1CC(=O)O	< 100 nM
Cc1c(Cc2ccc3c(c2)N=CN(C)S3(=O)=O)c2cc(F)ccc2n1CC(=O)O	< 100 nM
Cc1c(Cc2ccc3c(c2)CCS3(=O)=O)c2ccc(C(F)(F)F)cc2n1CC(=O)O	> 1000 nM
Cc1c(Cc2ccc3c(c2)C(F)(F)CCS3(=O)=O)c2cccnc2n1CC(=O)O	> 1000 nM
Cc1c(Cc2ccc3c(c2)CNS3(=O)=O)c2cc(F)ccc2n1CC(=O)O	< 100 nM
